Measured values: US20230339970A1, “CASEIN KINASE 1 DELTA MODULATORS” (priority 2020, published 2023)

Columns and labels:
human CSNK1D = biological target: T1, human CSNK1D (Homo sapiens, UniProt P48730); test: Whole Cell nBRET CSNK1D Binding Assay; conditions: living CHO cells stably expressing human CSNK1D tagged with nanoluciferase; NanoBret tracer 130 nM; 2 hours at 37 C
T1 construct: expressed in transfected cells

[1] = biological target: T2, human recombinant GST cleaved CSNK1D (Homo sapiens, UniProt P48730); test: Purified Enzyme Assay (ADP-Glo CSNK1D Kinase Assay); type: biochemical; conditions: 2 nM CSNK1D; peptide substrate 150 μM; ATP 20 μM; 45 minutes at room temperature
T2 construct: GST (cleaved yes); purchased University of Dundee clone DU 19064
Outline: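 Percent activity derived from ADP-Glo quantification of ADP produced. Reactions: compound dose-response with human recombinant GST-cleaved CSNK1D, ATP and substrate peptide PLSRTL-pS-VASLPGL, incubated 45 min at room temperature.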

T2 sequence (P48730 whole entry): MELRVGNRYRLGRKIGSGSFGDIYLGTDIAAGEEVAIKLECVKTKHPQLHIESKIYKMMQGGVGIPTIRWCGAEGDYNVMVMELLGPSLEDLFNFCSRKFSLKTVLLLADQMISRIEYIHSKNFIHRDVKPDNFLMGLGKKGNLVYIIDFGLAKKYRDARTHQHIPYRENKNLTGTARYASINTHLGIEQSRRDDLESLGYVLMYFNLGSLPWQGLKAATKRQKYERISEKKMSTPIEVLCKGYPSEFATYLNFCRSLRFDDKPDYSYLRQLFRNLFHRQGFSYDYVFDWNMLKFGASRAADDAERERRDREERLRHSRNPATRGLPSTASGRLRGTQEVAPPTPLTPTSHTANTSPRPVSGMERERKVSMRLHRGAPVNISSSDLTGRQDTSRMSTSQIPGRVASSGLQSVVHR
T1 sequence (P48730 whole entry): as above

IC50 (human CSNK1D)	IC50 [1]	Compound
0.055 µM	0.006 µM	C[C@@H]1[C@@H](C)OCc2c(-c3ccnc4[nH]ncc34)c(-c3ccc(F)cc3)nn21 (relative stereo) [Example 114, (6*R,7*R)-2-(4-Fluorophenyl)-6,7-dimethyl-3-(1H-pyrazolo[3,4-b]pyridin-4-yl)-6,7-dihydro-4H-pyrazolo[5,1-c][1,4]oxazine]
8.52 µM	0.111 µM	Fc1ccc(-c2nn3c(c2-c2ccnc4[nH]ncc24)CCC(F)(COC(F)(F)F)C3)nc1 (single isomer, unassigned) [Example 317, (*R)-4-[6-Fluoro-2-(5-fluoro-2-pyridyl)-6-(trifluoromethoxymethyl)-5,7-dihydro-4H-pyrazolo[1,5-a]pyridin-3-yl]-1H-pyrazolo[3,4-b]pyridine]
2.85 µM	0.089 µM	COCC1(F)CCc2c(-c3cc(C)nc4[nH]ncc34)c(-c3ccc(F)cn3)nn2C1 (single isomer, unassigned) [Example 305, (*R)-4-[6-Fluoro-2-(5-fluoro-2-pyridyl)-6-(methoxymethyl)-5,7-dihydro-4H-pyrazolo[1,5-a]pyridin-3-yl]-6-methyl-1H-pyrazolo[3,4-b]pyridine]
0.068 µM	0.008 µM	COCC1(F)CCc2c(-c3cc(C(F)F)nc4[nH]ncc34)c(-c3ccc(F)cn3)nn2C1 (single isomer, unassigned) [Example 306, (*S)-6-(Difluoromethyl)-4-[6-fluoro-2-(5-fluoro-2-pyridyl)-6-(methoxymethyl)-5,7-dihydro-4H-pyrazolo[1,5-a]pyridin-3-yl]-1H-pyrazolo[3,4-b]pyridine]
0.04 µM	0.004 µM	[2H]C([2H])([2H])[C@@]1(C(F)(F)F)Cn2nc(-c3ccc(F)cn3)c(-c3ccnc4[nH]ncc34)c2CO1 (single isomer, unassigned) [Example 424, (*S)-2-(5-Fluoropyridin-2-yl)-6-(methyl-d3)-3-(1H-pyrazolo[3,4-b]pyridin-4-yl)-6-(trifluoromethyl)-6,7-dihydro-4H-pyrazolo[5,1-c][1,4]oxazine]
0.005 µM	< 0.0005 µM	CC1COc2c(-c3ccnc4[nH]ncc34)c(-c3ccc(F)cc3)nn2C1 (stereo not shown) [Example 191, (R S)-2-(4-Fluorophenyl)-6-methyl-3-(1H-pyrazolo[3,4-b]pyridin-4-yl)-6,7-dihydro-5H-pyrazolo[5,1-b][1,3]oxazine]
0.011 µM	0.001 µM	C[C@@]1(CF)CCc2c(-c3ccnc4[nH]ncc34)c(-c3ccc(F)cn3)nn2C1 (single isomer, unassigned) [Example 52, (*R)-4-[6-(Fluoromethyl)-2-(5-fluoro-2-pyridyl)-6-methyl-5,7-dihydro-4H-pyrazolo[1,5-a]pyridin-3-yl]-1H-pyrazolo[3,4-b]pyridine]
0.042 µM	0.002 µM	CC[C@@]1(C)Cn2nc(-c3ccc(F)cn3)c(-c3ccnc4[nH]ncc34)c2CO1 (single isomer, unassigned) [Example 170, *S-6-Ethyl-2-(5-fluoropyridin-2-(l)-6-methyl-3-(1H-pyrazolo[3,4-b]pyridin-4-yl)-6,7-dihydro-4H-pyrazolo[5,1-c][1,4]oxazine]
3.28 µM	0.059 µM	CC1(C)Cn2nc(-c3ccc(F)cn3)c(-c3ccnc4[nH]cc(C#N)c34)c2CO1 [Example 148, 4-(2-(5-Fluoropyridin-2-yl)-6,6-dimethyl-6,7-dihydro-4H-pyrazolo[5,1-c][1,4]oxazin-3-yl)-1H-pyrrolo[2,3-b]pyridine-3-carbonitrile]
1.33 µM	0.054 µM	CC1(C)Cn2nc(-c3ccc(F)cn3)c(-c3ccnc4ccsc34)c2CO1 [Example 137, 2-(5-Fluoropyridin-2-yl)-6,6-dimethyl-3-(thieno[3,2-b]pyridin-7-yl)-6,7-dihydro-4H-pyrazolo[5,1-c][1,4]oxazine]
0.004 µM	0.001 µM	CC1(C)Cc2c(-c3ccnc4[nH]ncc34)c(-c3ccc(F)cc3)nn2C1 [Example 231, 4-[2-(4-Fluorophenyl)-5,5-dimethyl-4,6-dihydropyrrolo[1,2-b]pyrazol-3-yl]-1H-pyrazolo[3,4-b]pyridine]
0.197 µM	0.017 µM	Fc1ccc(-c2nn3c(c2-c2ccnc4[nH]ncc24)CCC32CC2)nc1 [Example 249, 2-(5-Fluoro-2-pyridyl)-3-(1H-pyrazolo[3,4-b]pyridin-4-yl)spiro[4,5-dihydropyrrolo[1,2-b]pyrazole-6,1′-cyclopropane]]
0.127 µM	0.006 µM	CC1(C)COc2c(-c3ccnc4cn[nH]c34)c(-c3ccc(F)cn3)nn2C1 [Example 454, 2-(5-Fluoro-2-pyridyl)-6,6-dimethyl-3-(1H-pyrazolo[4,3-b]pyridin-7-yl)-5,7-dihydropyrazolo[5,1-b][1,3]oxazine]
0.143 µM	0.009 µM	Cc1n[nH]c2nccc(-c3c(-c4ccc(F)cn4)nn4c3COC(C)(C)C4)c12 [Example 160, 2-(5-Fluoropyridin-2-yl)-6,6-dimethyl-3-(3-methyl-1H-pyrazolo[3,4-b]pyridin-4-yl)-6,7-dihydro-4H-pyrazolo[5,1-c][1,4]oxazine]
0.1 µM	0.004 µM	C[C@@H]1COCc2c(-c3ccnc4[nH]ncc34)c(-c3ccc(F)cc3)nn21 (single isomer, unassigned) [Example 92, (*R)-2-(4-Fluorophenyl)-7-methyl-3-(1H-pyrazolo[3,4-b]pyridin-4-yl)-6,7-dihydro-4H-pyrazolo[5,1-c][1,4]oxazine]

More lines, now with the values behind:

Compound	IC50 (human CSNK1D)	IC50 [1]
Cc1cc(-c2c(-c3ccc(F)cc3)nn3c2OCC2(COC2)C3)c2cn[nH]c2n1 [Example 211, 2′-(4-Fluorophenyl)-3′-(6-methyl-1H-pyrazolo[3,4-b]pyridin-4-yl)-5′H,7′H-spiro[oxetane-3,6′-pyrazolo[5,1-b][1,3]oxazine]]	0.006 µM	0.001 µM
Cc1cc(-c2c(-c3ccc(F)cc3)nn3c2OCC2(C3)CC2(F)F)c2cn[nH]c2n1 (single isomer, unassigned) [Example 474, *S-2,2-Difluoro-2′-(4-fluorophenyl)-3′-6-methyl-1H-pyrazolo[3,4-b]pyridin-4-yl)-5′H,7′H-spiro[cyclopropane-1,6′-pyrazolo[5,1-b][1,3]oxazine]]	0.002 µM	0.001 µM
CC1(CF)CCc2c(-c3ccncc3)c(-c3ccc(F)cn3)nn2C1 (single isomer, unassigned) [Example 284, (*S)-6-(Fluoromethyl)-2-(5-fluoro-2-pyridyl)-6-methyl-3-(4-pyridyl)-5,7-dihydro-4H-pyrazolo[1,5-a]pyridine]	0.068 µM	0.006 µM
Fc1ccc(-c2nn3c(c2-c2ccn4nccc4c2)CC[C@H]2[C@@H]3C2(F)F)cc1 (stereo in doubt) [Example 353, (5a*S,6a*R)-6,6-Difluoro-2-(4-fluorophenyl)-3-(pyrazolo[1,5-a]pyridin-4-yl)-5,5a,6,6a-tetrahydro-4H-cyclopropa[e]pyrazolo[1,5-a]pyridine]	3.83 µM	1.12 µM
[2H]C([2H])([2H])C1(C([2H])([2H])[2H])Cn2nc(-c3ccc(F)cn3)c(-c3c(F)cnc4[nH]nc(Cl)c34)c2CO1 [Example 403, 3-(3-Chloro-5-fluoro-1H-pyrazolo[3,4-b]pyridin-4-yl)-2-(5-fluoropyridin-2-yl)-6,6-bis(methyl-d3)-6,7-dihydro-4H-pyrazolo[5,1-c][1,4]oxazine]	0.023 µM	0.005 µM
Cc1cc(-c2c(-c3ccc(F)cc3)nn3c2[C@@H]2C[C@@H]2C3)c2cn[nH]c2n1 (relative stereo) [Example 276, (3b*R,4a*S)-2-(4-Fluorophenyl)-3-(6-methyl-1H-pyrazolo[3,4-b]pyridin-4-yl)-3b,4,4a,5-tetrahydrocyclopropa[3,4]pyrrolo[1,2-b]pyrazole]	0.006 µM	0.001 µM
Cc1cc(-c2c(-c3ccc(F)cc3)nn3c2CCC(F)(F)C3)c2cn[nH]c2n1 [Example 43, 4-[6,6-Difluoro-2-(4-fluorophenyl)-5,7-dihydro-4H-pyrazolo[1,5-a]pyridin-3-yl]-6-methyl-1H-pyrazolo[3,4-b]pyridine]	0.012 µM	0.002 µM
Cc1cc(-c2c(-c3ccc(F)cc3)nn3c2OCC2(C3)CC2(F)F)c2cn[nH]c2n1 (single isomer, unassigned) [Example 475, (*R)-2,2-Difluoro-2′-(4-fluorophenyl)-3′-(6-methyl-1H-pyrazolo[3,4-b]pyridin-4-yl)-5′H,7′H-spiro[cyclopropane-1,6′-pyrazolo[5,1-b][1,3]oxazine]]	0.036 µM	0.006 µM
CC(=O)Nc1cc(-c2c(-c3ccc(F)cc3)nn3c2OCCCC3)ccn1 [Example 215, N-(4-(2-(4-Fluorophenyl)-5,6,7,8-tetrahydropyrazolo[5,1-b][1,3]oxazepin-3-yl)pyridin-2-yl)acetamide]	0.028 µM	0.001 µM
CC1(C)Cn2nc(-c3ccc(F)cn3)c(-c3cc(CCC(F)(F)F)nc4[nH]ncc34)c2CO1 [Example 391, 2-(5-Fluoro-2-pyridyl)-6,6-dimethyl-3-[6-(3,3,3-trifluoropropyl)-1H-pyrazolo[3,4-b]pyridin-4-yl]-4,7-dihydropyrazolo[5,1-c][1,4]oxazine]	5.38 µM	0.258 µM
CC1(C)Cn2nc(-c3ccc(F)cn3)c(-c3ccnc(NC(=O)c4ccccc4)c3)c2CO1 [Example 136, N-(4-(2-(5-Fluoropyridin-2-yl)-6,6-dimethyl-6,7-dihydro-4H-pyrazolo[5,1-c][1,4]oxazin-3-yl)pyridin-2-yl)benzamide]	0.006 µM	0.002 µM
